Reference: patent publication US8178506B2, “Oligomeric compounds and compositions for use in modulation of small non-coding RNAs” (Regulus Therapeutics Inc., priority 2003, dated 2012)
In the oligonucleotide strings, read from the 5' end, every base follows the letter of its sugar. An asterisk marks phosphorothioate; unmarked linkages are phosphodiester. Other units and linkages are bracketed, terminal groups are in braces. A string of capitals states the bases alone. e = 2'-O-(2-methoxyethyl) (MOE); [5mC] = 5-methylcytosine; d = 2'-deoxy (DNA)

Assays:
mir-21 miRNA = assay: pGL3-mir-21 sensor luciferase assay in HeLa cells; format: cell-based, human; details: Table 50, pGL3-mir-21 sensor-expressing HeLa cells, normalized to pRL-CMV
Description: In order to assess the ability of miRNAs to bind predicted miRNA binding sites and regulate the expression of the luciferase reporter, in some embodiments, expression systems based on the pGL3-Control (Promega Corp., Madison Wis.) reporter vector and comprising either a mir-15a, mir-21, or a mir-23b miRNA binding site were developed and used in transient transfections of HeLa cells to determine whether the endogenous mir-15a, mir-21, or mir-23b miRNAs, respectively, could repress luciferase reporter gene expression.
The pGL3-mir-21 sensor plasmid was created by cloning the sequence ([…]; SEQ ID NO: 335), representing a sequence complementary to the mir-21 miRNA, into the Xba site of the pGL3-Control plasmid, placing the potential miRNA-binding site in the 3′UTR of the luciferase reporter. This reporter plasmid was used to transfect HeLa cells and it was observed that the endogenous mir-21 miRNA was able to inhibit luciferase expression from the pGL3-mir-21 sensor plasmid. Thus, to further evaluate the ability of the mir-21 miRNA to bind this target site encoded by the pGL3-mir-21 sensor plasmid, and to assess the ability of oligomeric compounds to interfere with mir-21-mediated silencing, pGL3-mir-21 sensor-expressing HeLa cells were treated with varying concentrations (10 nM or 50 nM) of the following oligomeric compounds: ISIS Number 327917 (SEQ ID NO: 335), a phosphorothioate uniform 2′-MOE oligomeric compound; ISIS Number 338697 ([…]; herein incorporated as SEQ ID NO: 524), a uniform 2′-MOE oligomeric compound targeting the mir-21 pri-miRNA molecule; and ISIS Number 328415 (SEQ ID NO: 524), a 2′-MOE 5-10-5 gapmer oligomeric compound targeting the mir-21 pri-miRNA. The uniform 2′-MOE phosphorothioate oligomeric compound ISIS Number 327901 (SEQ ID NO: 319) targeting an unrelated miRNA (mir-143) was used as a negative control. The data are the average of three trials and are presented in Table 44 as percent untreated control (luciferase plasmid only, not treated with oligomeric compound) luciferase expression, normalized to pRL-CMV levels.
In one embodiment, the oligomeric compounds ISIS Number 327917 (SEQ ID NO: 335), the phosphorothioate uniform 2′-MOE targeting mature mir-21; ISIS Number 358768 (SEQ ID NO: 918), the uniform 2′-MOE targeting the mir-21 pri-miRNA which stimulated the largest increase in pri-miRNA expression levels by real time quantitative RT-PCR; and ISIS Number 345382 (SEQ ID NO: 335), the 5-10-7 phosphorothioate 2′-MOE gapmer targeting mature mir-21 were selected for dose response studies in HeLa cells using the luciferase reporter system described in Example 27. ISIS Number 342683 (SEQ ID NO: 790), representing the scrambled nucleotide sequence of an unrelated PTP1B antisense oligonucleotide, was used as a negative control. HeLa cells expressing the pGL3-mir-21 sensor plasmid (described in Example 27) were treated with 1.9, 5.5, 16.7, and 50 nM of these oligomeric compounds, to assess the ability of oligomeric compounds to interfere with endogenous mir-21-mediated silencing of the pGL3-mir-21 sensor plasmid. The data are presented in Table 50 as percent untreated control (luciferase plasmid only, not treated with oligomeric compound) luciferase expression, normalized to pRL-CMV levels.

mir-21 pri-miRNA = mir-21 pri-miRNA expression in HeLa cells (real-time RT-PCR); format: cell-based, human; details: HeLa cells, 100 nM, real-time RT-PCR
Description: In one embodiment, the expression of mir-21 (noted to be expressed at high levels in HeLa cells) was assessed in cells treated with oligomeric compounds. Using the transfection methods previously described, HeLa cells were treated with 100 nM of the uniform 2′-MOE oligomeric compound ISIS Number 327917 (SEQ ID NO: 335) targeting the mir-21 mature miRNA. Total RNA was isolated by lysing cells in 1 mL TRIZOL™ (Invitrogen) using the manufacturer's recommended protocols. […] Real-time RT-PCR analysis was also performed on HeLa cells treated with ISIS 327917 using a primer/probe set specific for the mir-21 pri-miRNA molecule [forward primer=ISIS 339332 ([…]; herein incorporated as SEQ ID NO.: 911), reverse primer-ISIS 339333 (TCGACTGGTGTTGCCATGA; herein incorporated as SEQ ID NO.: 912), and probe=ISIS 339334 ([…]; herein incorporated as SEQ ID NO.: 913)]. Total RNA was quantified using RiboGreen™ RNA quantification reagent (Molecular Probes, Inc. Eugene, Oreg.), expression levels observed for the target were normalized to 5.8S rRNA, and values were expressed relative to an untreated control (UTC).
Using the real-time RT-PCR methods, the expression levels of the mir-21 pri-miRNA were compared in HeLa cells treated with this nested series of uniform 2′-MOE oligomeric compounds, targeting and spanning the entire length of the mir-21 pri-miRNA. ISIS Number 358768 (SEQ ID NO: 918) targets a region flanking the predicted 5′ Drosha cleavage site in the mir-21 pri-miRNA. ISIS Number 358777 (SEQ ID NO: 927) targets a region spanning the 3′ Drosha cleavage site in the mir-21 pri-miRNA. ISIS 358779 (SEQ ID NO: 929) targets a region flanking the predicted 3′ Drosha cleavage site in the mir-21 pri-miRNA. Additionally, oligomeric compounds ISIS 327917 (SEQ ID NO: 335), a uniform 2′-MOE compound targeting the mature mir-21 miRNA, and ISIS 345382 ([…]; SEQ ID NO: 335), a 5-10-7 phosphorothioate 2′-MOE gapmer targeting mir-21, were tested for comparison. Oligomeric compound ISIS 327863 ([…]; herein incorporated as SEQ ID NO: 936), a phosphorothioate 5-10-52′-MOE gapmer, was used as scrambled control. […] Total RNA was isolated by lysing cells in 1 mL TRIZOL™ (Invitrogen) using the manufacturer's recommended protocols. real-time RT-PCR analysis was performed using the primer/probe set specific for the mir-21 pri-miRNA molecule [forward primer=ISIS 339332 (SEQ ID NO.: 911), reverse primer-ISIS 339333 (SEQ ID NO.: 912), and probe=ISIS 339334 (SEQ ID NO.: 913)]. Total RNA was quantified using RiboGreen™ RNA quantification reagent (Molecular Probes, Inc. Eugene, Oreg.), expression levels observed for each target were normalized to 5.8S rRNA, and values were expressed relative to the untreated control (UTC). Effects on expression of the mir-21 pri-miRNA molecule resulting from treatment of HeLa cells with these uniform 2′-MOE oligomeric compounds is expressed as a percentage of RNA levels in untreated control cells.

IL-12 mRNA = IL-12 mRNA in LPS-activated primary murine macrophages; format: cell-based, mouse; details: LPS, average of 3 treatments
IL-6 mRNA = IL-6 mRNA in LPS-activated primary murine macrophages; format: cell-based, mouse; details: average of 3 treatments
Description: To investigate the role of miRNAs in the immune response, oligomeric compounds of the present invention targeting miRNAs were tested for their effects upon lipopolysaccharide (LPS)-activated primary murine macrophages. Macrophages participate in the immune response, for example, in the recognition and phagocytosis of microorganisms, including bacteria. Interferon-gamma (IFN-gamma) released by helper T cells is one type of signal required for macrophage activation, and LPS can serve as an additional stimulus. LPS is a component of the gram-negative bacterial cell wall and acts as an agonist for toll-like receptor 4 (TLR4), the primary LPS receptor expressed by macrophages. The proinflammatory cytokines interleukin-12 (IL-12) and interleukin-6 (IL-6) are induced by LPS treatment of macrophages, thus the expression of the mRNAs encoding these cytokines was used to evaluate the response of macrophages to LPS following treatment with oligomeric compounds targeting miRNAs.
Macrophages were isolated as follows. Female C57B1/6 mice (Charles River Laboratories, Wilmington, Mass.) were injected intraperitoneally with 1 ml 3% thioglycollate broth (Sigma-Aldrich, St. Louis, Mo.), and peritoneal macrophage cells were isolated by peritoneal lavage 4 days later. The cells were plated in 96-well plates at 40,000 cells/well for one hour in serum-free RPMI adjusted to contain 10 mM HEPES (Invitrogen Life Technologies, Carlsbad, Calif.), allowed to adhere, then non-adherent cells were washed away and the media was replaced with RPMI containing 10 mM HEPES, 10% FBS and penicillin/streptomycin (“complete” RPMI; Invitrogen Life Technologies, Carlsbad, Calif.).
Oligomeric compounds were introduced into the cells using the non-liposomal transfection reagent FuGENE 6 Transfection Reagent (Roche Diagnostics Corp., Indianapolis, Ind.). Oligomeric compound was mixed with FuGENE 6 in 1 mL of serum-free RPMI to achieve a concentration of 10 μL FuGENE per 1000 nM oligomeric compound. The oligomeric compound/FuGENE complex was allowed to form at room temperature for 20 minutes. This mixture was diluted to the desired concentration of oligomeric compound by the addition of the appropriate volume of complete RPMI. The final ratio of FuGENE 6 to oligomeric compound was 1 μL of FuGENE 6 per 100 nM oligomeric compound. A volume of 100 μL of oligomeric compound/FuGENE/RPMI was added to each well of the 96-well plate in which the macrophages were cultured. Each oligomeric compound treatment was repeated in triplicate.
Following oligomeric compound treatment, cells were stimultated with LPS. Cells were cultured in the presence of the transfection complex for approximately 24 to 28 hours at 37° C. and 5% CO2, after which the medium containing the transfection complex was removed from the cells, and complete RPMI containing 100 ng/mL LPS (Sigma-Aldrich Corp., St. Louis, Mo.) was added to the cells for a period of approximately 24 hours. Control samples included (1) cells receiving no oligomeric compound, stimulated with LPS and (2) cells receiving neither oligomeric compound nor LPS treatment.
In another embodiment, following oligomeric compound treatment, cells were first activated by IFN-gamma, to amplify the response to LPS. Cells were cultured in the presence of the transfection complex for approximately 24 hours at 37° C. and 5% CO2, at which point the medium containing the transfection complex was removed from the cells, and complete RPMI containing 100 ng/mL recombinant mouse IFN-gamma (R&D Systems, Minneapolis, Minn.) was added to the cells. After the 4 hour treatment with INF-gamma, cells were treated with 100 ng/mL LPS for approximately 24 hours. Control samples included (1) cells receiving no oligomeric compound, stimulated with LPS and (2) cells receiving neither oligomeric compound nor LPS treatment. […]

## 345382 (TCAACATCAGTCTGATAAGCTA; sugars from the 5' end e5 d10 e7, all phosphorothioate, methylation of C not given here) [compound 345382]
mir-21 miRNA; 1.9 nM
  luciferase expression % UTC: 101 % UTC
mir-21 miRNA; 5.5 nM
  luciferase expression % UTC: 135 % UTC
mir-21 miRNA; 16.7 nM
  luciferase expression % UTC: 117 % UTC
mir-21 miRNA; 50 nM
  luciferase expression % UTC: 95 % UTC
mir-21 pri-miRNA
  mir-21 pri-miRNA expression % UTC: 119 % UTC

## 342683 (antisense CCTTCCCTGAAGGTTCCTCCTT; scrambled control, further chemistry not given here) [compound 342683]
IL-12 mRNA; 75 nM, +IFN
  IL-12 mRNA expression, % UTC: 92 % UTC
IL-12 mRNA; 75 nM, −IFN
  IL-12 mRNA expression, % UTC: 121 % UTC
IL-12 mRNA; 150 nM, +IFN
  IL-12 mRNA expression, % UTC: 76 % UTC
IL-12 mRNA; 150 nM, −IFN
  IL-12 mRNA expression, % UTC: 165 % UTC
IL-12 mRNA; 300 nM, +IFN
  IL-12 mRNA expression, % UTC: 65 % UTC
IL-12 mRNA; 300 nM, −IFN
  IL-12 mRNA expression, % UTC: 147 % UTC
IL-12 mRNA; 600 nM, +IFN
  IL-12 mRNA expression, % UTC: 64 % UTC
IL-12 mRNA; 600 nM, −IFN
  IL-12 mRNA expression, % UTC: 130 % UTC
IL-6 mRNA; 75 nM, +IFN
  IL-6 mRNA expression, % UTC: 115 % UTC
IL-6 mRNA; 75 nM, −IFN
  IL-6 mRNA expression, % UTC: 135 % UTC
IL-6 mRNA; 150 nM, +IFN
  IL-6 mRNA expression, % UTC: 86 % UTC
IL-6 mRNA; 150 nM, −IFN
  IL-6 mRNA expression, % UTC: 161 % UTC
IL-6 mRNA; 300 nM, +IFN
  IL-6 mRNA expression, % UTC: 110 % UTC
IL-6 mRNA; 300 nM, −IFN
  IL-6 mRNA expression, % UTC: 156 % UTC
IL-6 mRNA; 600 nM, +IFN
  IL-6 mRNA expression, % UTC: 149 % UTC
IL-6 mRNA; 600 nM, −IFN
  IL-6 mRNA expression, % UTC: 311 % UTC
mir-21 miRNA; 1.9 nM
  luciferase expression % UTC: 127 % UTC
mir-21 miRNA; 5.5 nM
  luciferase expression % UTC: 171 % UTC
mir-21 miRNA; 16.7 nM
  luciferase expression % UTC: 104 % UTC
mir-21 miRNA; 50 nM
  luciferase expression % UTC: 108 % UTC

## 358768 (eA*eG*eG*eT*eG*eG*eT*eA*e[5mC]*eA*eG*e[5mC]*e[5mC]*eA*eT*eG*eG*eA*eG*eA) [compound 358768]
mir-21 miRNA; 1.9 nM
  luciferase expression % UTC: 103 % UTC
mir-21 miRNA; 5.5 nM
  luciferase expression % UTC: 163 % UTC
mir-21 miRNA; 16.7 nM
  luciferase expression % UTC: 146 % UTC
mir-21 miRNA; 50 nM
  luciferase expression % UTC: 118 % UTC
mir-21 pri-miRNA
  mir-21 pri-miRNA expression % UTC: 987 % UTC
